The text below walks through data of patent publication US20200131249A1, “NOVEL PROTEINS AND USE THEREOF” (EVOLVERITAS KFT., priority 2017, published 2020).

One assay has as its target T1, rat MASP-2 (Rattus norvegicus, UniProt Q9JJS8).
T1 construct: made in house
The experiment in a line: KI determination on rat MASP-2 catalytic fragment. The format is biochemical. The following applies: KI ratio. The protocol: (§1) The inhibition equilibrium constant (KI) of all four inhibitor variants produced was measured on human MASP-2 and rat MASP-2. Additionally, KI values were measured also on human MASP-1 and human MASP-3 to assess the specificity of the inhibitors amongst the MASP enzymes. KI values of the inhibitors on bovine trypsin, a pancreatic model enzyme was also measured.
For determining the KI of the inhibitors on MASP enzymes we used catalytic enzyme fragments containing the three C-terminal domains: CCP1-CCP2-SP. The synthetic substrate used in the measurements was Z-L-Lys-SBzl hydrochloride (Sigma, C3647), from which a 10 mM stock solution was prepared. […] The release of the chromophore group created in this way was monitored via the change of absorbance at 410 nm using a BioTek Synergy H4 multimode microplate reader.
A dilution sequence was prepared from the individual inhibitors, the enzyme was added to it, and it was incubated for 2 hours at room temperature. […] The concentration of the product was measured as a function of reaction time. The slope of the straight line determined for the initial phase of the reaction was normalised with the slope obtained for the uninhibited enzyme reaction, and this value was multiplied with the total enzyme concentration. […]

A further assay addresses T2, human MASP-1 (Homo sapiens, UniProt P48740).
T2 construct: catalytic enzyme fragments containing the three C-terminal domains: CCP1-CCP2-SP
T2 sequence (P48740 449-699 limits assumed): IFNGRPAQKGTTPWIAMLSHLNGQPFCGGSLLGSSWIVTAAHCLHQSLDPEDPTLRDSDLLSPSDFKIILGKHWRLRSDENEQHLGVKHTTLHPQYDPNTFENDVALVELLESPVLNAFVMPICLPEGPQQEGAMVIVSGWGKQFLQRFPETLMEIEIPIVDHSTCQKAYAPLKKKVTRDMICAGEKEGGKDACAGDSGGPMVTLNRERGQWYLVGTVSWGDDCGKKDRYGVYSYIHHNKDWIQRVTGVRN
T2 sequence (P48740 298-448 partner limits assumed): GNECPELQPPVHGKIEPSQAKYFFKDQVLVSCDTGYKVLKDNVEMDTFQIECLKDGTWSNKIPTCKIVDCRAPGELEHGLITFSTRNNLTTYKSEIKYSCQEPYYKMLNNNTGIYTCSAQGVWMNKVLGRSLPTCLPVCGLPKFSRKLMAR
As to the kind of experiment: KI determination on human MASP-1 catalytic fragment. The format is biochemical. Further details: key to KI on human MASP-1: N.E.: not effective. The following applies: for KI on human MASP-1: catalytic fragment, Z-L-Lys-SBzl. The protocol:
as §1
(§2) For determining the KI of the inhibitors on MASP enzymes we used catalytic enzyme fragments containing the three C-terminal domains: CCP1-CCP2-SP. The synthetic substrate used in the measurements was Z-L-Lys-SBzl hydrochloride (Sigma, C3647), from which a 10 mM stock solution was prepared. The reactions were performed in a volume of 0.2 ml at room temperature in a buffer consisting of 20 mM HEPES; 145 mM NaCl; 5 mM CaCl2; 0.05% Triton-X100. The substrate cleaved by the enzyme entered into a reaction with the 5,5′-Dithiobis(2-nitrobenzoic acid) (DTNB, Ellman's reagent, Sigma—D8130) auxiliary substrate present in the solution in 2-fold excess to Z-L-Lys-SBzl. The release of the chromophore group created in this way was monitored via the change of absorbance at 410 nm using a BioTek Synergy H4 multimode microplate reader.
(§3) A dilution sequence was prepared from the individual inhibitors, the enzyme was added to it, and it was incubated for 2 hours at room temperature. The samples were transferred on a 96-well microtiter plate (Nunc 269620). The reactions were started by adding the mixture of the substrate and the auxiliary substrate to the samples. The concentration of the substrate and the length of the measuring period were chosen so that under the given conditions the enzyme should consume less than 10% of the substrate. In this case we used 250 μM Z-L-Lys-SBzl and 500 μM DTNB in the reactions. In the course of measuring, a method developed for the characterisation of tight-binding inhibitors was used (Empie, 1982). The concentration of the product was measured as a function of reaction time. The slope of the straight line determined for the initial phase of the reaction was normalised with the slope obtained for the uninhibited enzyme reaction, and this value was multiplied with the total enzyme concentration. As a result of this we obtained the free enzyme concentration, which was plotted as a function of the total inhibitor concentration and the Ki value was determined according to the following equation:
(§4) E=y=E0−(E0+x+Ki−(((E0+x+Ki)^2)−4*E0*x)^(½))/2,
(§5) where E is the free (uninhibited) enzyme concentration, and E0 is the total enzyme concentration. The stock concentration of the inhibitors was determined by titration with bovine trypsin of known concentration. The results were calculated as the average of parallel measurements.

For another assay, the target named is T3, human MASP-3 (Homo sapiens, UniProt P48740).
T3 construct: catalytic enzyme fragments containing the three C-terminal domains: CCP1-CCP2-SP
T3 sequence (P48740 450-728 isoform P48740-2 limits assumed): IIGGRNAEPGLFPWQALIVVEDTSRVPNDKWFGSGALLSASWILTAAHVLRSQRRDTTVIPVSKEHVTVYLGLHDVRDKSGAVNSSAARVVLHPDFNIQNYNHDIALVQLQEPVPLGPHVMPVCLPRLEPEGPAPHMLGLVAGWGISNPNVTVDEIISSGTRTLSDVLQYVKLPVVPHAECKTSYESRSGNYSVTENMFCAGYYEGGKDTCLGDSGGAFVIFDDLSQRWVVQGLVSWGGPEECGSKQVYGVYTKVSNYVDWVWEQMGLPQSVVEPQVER
The experiment in a line: KI determination on human MASP-3 catalytic fragment. The format is biochemical. The following applies: for Ki: catalytic fragment, Z-L-Lys-SBzl. How it is done:
as §1, §2, §3, §4, §5

For another assay, the system named is intrinsic pathway. As to the kind of experiment: Activated partial thromboplastin time (APTT) in human plasma. The protocol: (§6) Blood coagulation measurements using blood plasma taken from healthy human individuals were also performed. From the blood obtained through venipuncture and treated with sodium citrate (3.8% wt/vol) the plasma was isolated by centrifugation (2,000 g, 15 minutes, Jouan CR412 centrifuge).
(§7) The effect of the protein variants of the present invention on the blood coagulation process was tested in three standard assays, the thrombin time, testing any direct effects on thrombin; prothrombin time, testing any effects on the extrinsic pathway; and the activated partial thromboplastin time, testing any effects on the intrinsic pathway. Blood was collected from a healthy individual by vein puncture after informed consent. The blood was treated with sodium-citrate (3.8% w/v) and centrifuged. All three assays were performed on the automated instrument Sysmex CA-1500 (Sysmex) with Innovin reagent (Dale Behring, Marburg, Germany).
(§8) The inhibitors were applied in a fivefold serial dilution with the highest final concentration being 36 μM. This value is 3-4 orders of magnitudes higher than the KI values of the three protein variants of the present invention on human MASP-2. Even at the highest concentration the protein variants of the present invention have only little effect in the APTT test and no effect in the PT and TT tests.

The subject of the next assay is extrinsic pathway. The experiment in a line: Prothrombin time (PT) in human plasma. How it is done:
as §6, §7, §8

The test system of a further assay is thrombin. As to the kind of experiment: Thrombin time (TT) in human plasma. The protocol:
as §6, §7, §8

In the next assay the target is porcine trypsin (Sus scrofa, UniProt P00761). The following applies: Petersen 1996; read-out: KI towards porcine trypsin; cited from earlier work.
Chain of porcine trypsin (P00761 9-231): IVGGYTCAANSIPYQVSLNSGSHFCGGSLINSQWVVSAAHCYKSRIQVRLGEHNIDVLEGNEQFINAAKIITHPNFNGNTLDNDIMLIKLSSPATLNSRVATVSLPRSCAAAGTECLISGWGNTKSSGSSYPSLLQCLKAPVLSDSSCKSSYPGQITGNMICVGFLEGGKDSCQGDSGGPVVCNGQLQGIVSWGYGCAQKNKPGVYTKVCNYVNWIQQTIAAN
In another assay the target is MASP-2 (Homo sapiens, UniProt O00187). Further details: host or cells: diluted serum. The settings on record: Wouters 2011; Keizer 2015; read-out: IC50 of MASP-2 inhibition in solid phase ELISA assay with diluted serum; cited from earlier work. In general terms: In an ELISA, binding on a coated surface is turned into a signal by an enzyme label.
Chain of MASP-2 (O00187 16-686, species assumed): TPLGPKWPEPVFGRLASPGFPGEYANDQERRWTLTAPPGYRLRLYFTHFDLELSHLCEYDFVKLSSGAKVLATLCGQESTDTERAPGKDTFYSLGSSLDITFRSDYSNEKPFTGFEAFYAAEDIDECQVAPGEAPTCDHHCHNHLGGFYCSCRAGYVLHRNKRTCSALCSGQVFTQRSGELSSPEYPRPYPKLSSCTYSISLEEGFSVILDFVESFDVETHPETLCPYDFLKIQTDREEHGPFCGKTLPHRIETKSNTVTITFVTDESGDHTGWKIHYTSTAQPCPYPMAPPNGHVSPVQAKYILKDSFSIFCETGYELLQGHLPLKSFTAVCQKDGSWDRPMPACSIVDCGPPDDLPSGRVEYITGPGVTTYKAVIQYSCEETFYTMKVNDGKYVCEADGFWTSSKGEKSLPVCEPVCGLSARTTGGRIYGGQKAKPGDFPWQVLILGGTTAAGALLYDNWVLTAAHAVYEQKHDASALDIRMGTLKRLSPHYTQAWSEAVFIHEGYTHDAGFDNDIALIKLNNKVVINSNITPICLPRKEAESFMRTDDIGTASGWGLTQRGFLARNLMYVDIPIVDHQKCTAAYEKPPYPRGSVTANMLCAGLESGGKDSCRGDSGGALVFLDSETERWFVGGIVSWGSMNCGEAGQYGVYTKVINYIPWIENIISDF

Where no end group is shown, it is not given here.

T1 sequence (Q9JJS8 with tags, fused parts or gaps L506P/I507H/R622A): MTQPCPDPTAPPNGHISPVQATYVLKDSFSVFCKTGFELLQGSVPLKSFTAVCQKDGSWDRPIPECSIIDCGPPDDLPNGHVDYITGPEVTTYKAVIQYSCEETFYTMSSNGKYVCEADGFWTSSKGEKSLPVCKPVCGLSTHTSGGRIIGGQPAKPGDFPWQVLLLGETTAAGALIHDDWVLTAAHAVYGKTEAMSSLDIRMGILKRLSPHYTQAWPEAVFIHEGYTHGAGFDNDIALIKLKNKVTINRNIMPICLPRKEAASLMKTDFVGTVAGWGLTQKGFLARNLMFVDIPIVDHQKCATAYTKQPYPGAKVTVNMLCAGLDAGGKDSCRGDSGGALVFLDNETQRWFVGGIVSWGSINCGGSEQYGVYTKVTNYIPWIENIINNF

As usually defined, the Ki is a dissociation constant, usually derived from enzyme kinetics or from competition with a known ligand. As for “SEQ ID NO: 17: TFPI-D2 variant protein with inhibitor loop VCRAVKR (SEQ ID NO: 7) (KPDFCFLEEDPGVCRAVKRRYFYNNQTKQCERFKYGGCLGNMNNFETLEECKNICEDG; ends and bridges not checked; cysteine pairing not given here)”, the “fold more potent than SGMI-2 on rat MASP-2” value with rat MASP-2 was “about 3 fold”. Besides, the “KI on human MASP-1” value with human MASP-1 is recorded as “N.E”. The Ki with human MASP-3 was more than 30 µM. Also, the APTT in the assay on intrinsic pathway (inhibitor 0.1 μM) turned out to be 36.8 s; with intrinsic pathway (inhibitor 0.3 μM) it was 37.2 s; with intrinsic pathway (inhibitor 1.4 μM), 38.1 s; in the assay on intrinsic pathway (inhibitor 7.2 μM), 40.6 s; in the assay with intrinsic pathway (inhibitor 36.0 μM), 47.4 s. The PT in the assay with extrinsic pathway (inhibitor 0.1 μM) was 10.8 s; in the assay on extrinsic pathway (inhibitor 0.3 μM), 10.8 s; with extrinsic pathway (inhibitor 1.4 μM) it was 10.8 s; in the assay on extrinsic pathway (inhibitor 7.2 μM), 10.9 s; in the assay with extrinsic pathway (inhibitor 36.0 μM), 11.4 s. Moreover, the TT with thrombin (inhibitor 0.1 μM) is given as 16.6 s; with thrombin (inhibitor 0.3 μM) it was 16.3 s; in the assay on thrombin (inhibitor 1.4 μM), 16.4 s; in the assay with thrombin (inhibitor 7.2 μM), 16.4 s; with thrombin (inhibitor 36.0 μM), 16.0 s.

For orientation: IC50 means the point on the concentration scale where inhibition reaches its midpoint. For TFPI-D2 [reference compound], in the assay with human MASP-1, the “KI on human MASP-1” value is given as “N.E”. Further, in the assay with human MASP-1 (result in words), the “inhibition of MASP-1” value is listed as “No considerable inhibition”. The Ki with human MASP-3 is more than 30 µM; with porcine trypsin, 0.1 nM. For the same substance, in the assay with human MASP-3 (result in words), the “inhibition of MASP-3” value is “No considerable inhibition”. Also, in the assay with MASP-2, the concentration for half-maximal inhibition (IC50) is 10 µM.

Consider “SEQ ID NO: 11: TFPI-D2 variant protein with inhibitor loop FCRAVKR (SEQ ID NO: 1) (KPDFCFLEEDPGFCRAVKRRYFYNNQTKQCERFKYGGCLGNMNNFETLEECKNICEDG; ends and bridges not checked; cysteine pairing not given here)”, for which, in the assay with human MASP-1, the “KI on human MASP-1” value is “N.E”. Besides, the inhibition constant Ki in the assay with human MASP-3 was more than 30 µM. Also, the APTT amounted to 36.3 s in the assay with intrinsic pathway (inhibitor 0.1 μM); 36.5 s in the assay with intrinsic pathway (inhibitor 0.3 μM); 37.0 s with intrinsic pathway (inhibitor 1.4 μM); 39.3 s with intrinsic pathway (inhibitor 7.2 μM); 46.0 s in the assay with intrinsic pathway (inhibitor 36.0 μM). The PT was determined as 10.7 s in the assay with extrinsic pathway (inhibitor 0.1 μM); 10.8 s in the assay with extrinsic pathway (inhibitor 0.3 μM); 11.0 s in the assay with extrinsic pathway (inhibitor 1.4 μM); 11.0 s with extrinsic pathway (inhibitor 7.2 μM); 11.4 s in the assay on extrinsic pathway (inhibitor 36.0 μM). The TT in the assay with thrombin (inhibitor 0.1 μM) is reported as 16.5 s; with thrombin (inhibitor 0.3 μM), 16.6 s; with thrombin (inhibitor 1.4 μM), 16.7 s; with thrombin (inhibitor 7.2 μM), 16.4 s; with thrombin (inhibitor 36.0 μM), 16.0 s.
